Assay results: US20230295182A1, “SPIRO DERIVATIVES OF ALPHA-D-GALACTOPYRANOSIDES” (Idorsia Pharmaceuticals Ltd, priority 2020, published 2023)

Assays:
human Gal-3 (hGal-3) = human Gal-3 (hGal-3) (Homo sapiens (Human), UniProt P17931); assay: Competitive binding assay: biotinylated hGal-3 to microplate-adsorbed asialofetuin (ASF); conditions: Activity on hGal-3; binding to ASF-coated plates, 3 hours at 4° C.; mean values
Experimental: Evaluation of Compound Inhibitory Activity (IC50)
The inhibitory activity of compounds is determined in competitive binding assays. This spectrophotometric assay measures the binding of biotinylated human Gal-3 (hGal-3) or human Gal-1 (hGal-1), respectively, to a microplate-adsorbed glycoprotein, asialofetuin (ASF) (Proc Natl Acad Sci USA. 2013 Mar. 26; 110(13):5052-7.). Alternatively, and preferably, a human Gal-1 version in which all six cysteines are substituted by serines may be used.
Briefly, compounds are serially diluted in DMSO (working dilutions). ASF-coated 384 well plates are supplemented with 22.8 μL/well of biotinylated hGal-3 or hGal-1 in assay buffer (i.e. 300-1000 ng/mL biotinylated hGal-3 or hGal-1) to which 1.2 µL of compound working dilutions are added and mixed.
Plates are incubated for 3 hours at 4° C., then washed with cold assay buffer (3×50 uL), incubated for 1 hour with 25 μL/well of a streptavidin-peroxidase solution (diluted in assay buffer to 80 ng/mL) at 4° C., followed by further washing steps with assay buffer (3×50 uL). Finally, 25 µL/well of ABTS substrate is added.
The calculated IC50 values may fluctuate depending on the daily assay performance. Fluctuations of this kind are known to those skilled in the art. IC50 values from several measurements are given as mean values.

human Gal-1 (hGal-1) = human Gal-1 (hGal-1) (Homo sapiens, UniProt P09382); assay: Competitive binding assay: biotinylated hGal-1 to microplate-adsorbed asialofetuin (ASF); conditions: Activities on hGal-1; binding to ASF-coated plates, 3 hours at 4° C.; mean values; read-out: Gal-1 IC50
Experimental: Evaluation of Compound Inhibitory Activity (IC50) The inhibitory activity of compounds is determined in competitive binding assays. […] Alternatively, and preferably, a human Gal-1 version in which all six cysteines are substituted by serines may be used. Briefly, compounds are serially diluted in DMSO (working dilutions). […] Plates are incubated for 3 hours at 4° C., then washed with cold assay buffer (3×50 uL), incubated for 1 hour with 25 μL/well of a streptavidin-peroxidase solution (diluted in assay buffer to 80 ng/mL) at 4° C., followed by further washing steps with assay buffer (3×50 uL). Finally, 25 µL/well of ABTS substrate is added. […] The calculated IC50 values may fluctuate depending on the daily assay performance. Fluctuations of this kind are known to those skilled in the art. IC50 values from several measurements are given as mean values.

human Gal-1 (hGal-1), sequence (P09382 2-135 limits assumed): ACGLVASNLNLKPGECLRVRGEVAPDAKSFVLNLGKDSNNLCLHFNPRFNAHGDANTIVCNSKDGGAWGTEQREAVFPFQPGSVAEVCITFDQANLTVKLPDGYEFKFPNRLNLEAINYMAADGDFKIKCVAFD
human Gal-3 (hGal-3), sequence (P17931 whole entry): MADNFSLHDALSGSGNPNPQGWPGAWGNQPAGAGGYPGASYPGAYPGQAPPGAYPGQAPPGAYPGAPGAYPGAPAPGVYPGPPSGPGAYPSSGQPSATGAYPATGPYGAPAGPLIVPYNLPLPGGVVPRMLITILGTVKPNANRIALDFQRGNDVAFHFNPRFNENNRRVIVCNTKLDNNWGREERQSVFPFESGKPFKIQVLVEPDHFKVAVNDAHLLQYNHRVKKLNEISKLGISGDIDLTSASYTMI

Row | IC50 (human Gal-3 (hGal-3)) | IC50 (human Gal-1 (hGal-1)) | Structure (SMILES)
1 | 0.069 µM | 1.5 µM | CO[C@@H]1[C@@H](n2cc(-c3cc(F)c(F)c(F)c3)nn2)[C@@H](O)[C@@H](CO)O[C@@H]1CC1=NOC2(CCC(NC(=O)OC(C)(C)C)CC2)C1 (stereo partly drawn) [Example 1.11, tert-butyl (3-(((2R,3R,4S,5R,6R)-5-hydroxy-6-(hydroxymethyl)-3-methoxy-4-(4-(3,4,5-trifluorophenyl)-1H-1,2,3-triazol-1-yl)tetrahydro-2H-pyran-2-yl)methyl)-1-oxa-2-azaspiro[4.5]dec-2-en-8-yl)carbamate]
2 | 0.035 µM | 1.1 µM | CO[C@@H]1[C@@H](n2cc(-c3cc(F)c(F)c(F)c3)nn2)[C@@H](O)[C@@H](CO)O[C@@H]1CC1=NO[C@]2(CC[C@H](NC(=O)OC(C)(C)C)CC2)C1 [Example 1.15, tert-butyl ((5r,8R)-3-(((2R,3R,4S,5R,6R)-5-hydroxy-6-(hydroxymethyl)-3-methoxy-4-(4-(3,4,5-trifluorophenyl)-1H-1,2,3-triazol-1-yl)tetrahydro-2H-pyran-2-yl)methyl)-1-oxa-2-azaspiro[4.5]dec-2-en-8-yl)carbamate]
3 | 0.34 µM | 2.3 µM | CO[C@@H]1[C@@H](n2cc(-c3cc(F)c(F)c(F)c3)nn2)[C@@H](O)[C@@H](CO)O[C@@H]1CC1=NO[C@]2(CC[C@@H](NC(=O)OC(C)(C)C)CC2)C1 [Example 1.16, tert-butyl ((5s,8S)-3-(((2R,3R,4S,5R,6R)-5-hydroxy-6-(hydroxymethyl)-3-methoxy-4-(4-(3,4,5-trifluorophenyl)-1H-1,2,3-triazol-1-yl)tetrahydro-2H-pyran-2-yl)methyl)-1-oxa-2-azaspiro[4.5]dec-2-en-8-yl)carbamate]
4 | 0.16 µM | 6 µM | CO[C@@H]1[C@@H](n2cc(-c3ccc(Br)c(F)c3F)nn2)[C@@H](O)[C@@H](CO)O[C@@H]1CC1=NOC2(CCCCC2)C1 [Example 1.17, (2R,3R,4S,5R,6R)-6-((1-oxa-2-azaspiro[4.5]dec-2-en-3-yl)methyl)-4-(4-(4-bromo-2,3-difluorophenyl)-1H-1,2,3-triazol-1-yl)-2-(hydroxymethyl)-5-methoxytetrahydro-2H-pyran-3-ol]
5 | 0.18 µM | 10.3 µM | CO[C@@H]1[C@@H](n2cc(-c3cc(F)c(Cl)c(F)c3)nn2)[C@@H](O)[C@@H](CO)O[C@@H]1CC1=NOC2(CCCCC2)C1 [Example 1.18, (2R,3R,4S,5R,6R)-6-((1-oxa-2-azaspiro[4.5]dec-2-en-3-yl)methyl)-4-(4-(4-chloro-3,5-difluorophenyl)-1H-1,2,3-triazol-1-yl)-2-(hydroxymethyl)-5-methoxytetrahydro-2H-pyran-3-ol]
6 | 0.12 µM | 5.3 µM | CO[C@@H]1[C@@H](n2cc(-c3ccc(C)c(F)c3)nn2)[C@@H](O)[C@@H](CO)O[C@@H]1CC1=NOC2(CCCCC2)C1 [Example 1.20, (2R,3R,4S,5R,6R)-6-((1-oxa-2-azaspiro[4.5]dec-2-en-3-yl)methyl)-4-(4-(3-fluoro-4-methylphenyl)-1H-1,2,3-triazol-1-yl)-2-(hydroxymethyl)-5-methoxytetrahydro-2H-pyran-3-ol]
7 | 0.076 µM | 3.7 µM | CO[C@@H]1[C@@H](n2cc(-c3ccc(Cl)c(F)c3F)nn2)[C@@H](O)[C@@H](CO)O[C@@H]1CC1=NOC2(CCCCC2)C1 [Example 1.22, (2R,3R,4S,5R,6R)-6-((1-oxa-2-azaspiro[4.5]dec-2-en-3-yl)methyl)-4-(4-(4-chloro-2,3-difluorophenyl)-1H-1,2,3-triazol-1-yl)-2-(hydroxymethyl)-5-methoxytetrahydro-2H-pyran-3-ol]
8 | 0.76 µM | 3.5 µM | CO[C@@H]1[C@@H](n2cc(-c3cc(F)c(F)c(F)c3)nn2)[C@@H](O)[C@@H](CO)O[C@@H]1CC1=NOC2(CCOCC2)C1 [Example 1.23, (2R,3R,4S,5R,6R)-6-((1,8-dioxa-2-azaspiro[4.5]dec-2-en-3-yl)methyl)-2-(hydroxymethyl)-5-methoxy-4-(4-(3,4,5-trifluorophenyl)-1H-1,2,3-triazol-1-yl)tetrahydro-2H-pyran-3-ol]
9 | 0.45 µM | 4.9 µM | CO[C@@H]1[C@@H](n2cc(-c3cc(F)c(F)c(F)c3)nn2)[C@@H](O)[C@@H](CO)O[C@@H]1CC1=NOC2(CCC(F)(F)CC2)C1 [Example 1.24, (2R,3R,4S,5R,6R)-6-((8,8-difluoro-1-oxa-2-azaspiro[4.5]dec-2-en-3-yl)methyl)-2-(hydroxymethyl)-5-methoxy-4-(4-(3,4,5-trifluorophenyl)-1H-1,2,3-triazol-1-yl)tetrahydro-2H-pyran-3-ol]

Continued, compound first:

Row | Structure (SMILES) | IC50 (human Gal-3 (hGal-3)) | IC50 (human Gal-1 (hGal-1))
10 | CO[C@@H]1[C@@H](n2cc(-c3cc(F)c(F)c(F)c3)nn2)[C@@H](O)[C@@H](CO)O[C@@H]1CC1=NOC2(CCC2)C1 [Example 1.10, (2R,3R,4S,5R,6R)-6-((5-oxa-6-azaspiro[3.4]oct-6-en-7-yl)methyl)-2-(hydroxymethyl)-5-methoxy-4-(4-(3,4,5-trifluorophenyl)-1H-1,2,3-triazol-1-yl)tetrahydro-2H-pyran-3-ol] | 0.62 µM | 2.2 µM
11 | CO[C@@H]1[C@@H](n2cc(-c3ccc(Cl)c(F)c3)nn2)[C@@H](O)[C@@H](CO)O[C@@H]1CC1=NOC2(CCCCC2)C1 [Example 1.12, (2R,3R,4S,5R,6R)-6-((1-oxa-2-azaspiro[4.5]dec-2-en-3-yl)methyl)-4-(4-(4-chloro-3-fluorophenyl)-1H-1,2,3-triazol-1-yl)-2-(hydroxymethyl)-5-methoxytetrahydro-2H-pyran-3-ol] | 0.31 µM | 1.1 µM
12 | CO[C@@H]1[C@@H](n2cc(-c3ccc(F)c(F)c3F)nn2)[C@@H](O)[C@@H](CO)O[C@@H]1CC1=NOC2(CCCCC2)C1 [Example 1.13, (2R,3R,4S,5R,6R)-6-((1-oxa-2-azaspiro[4.5]dec-2-en-3-yl)methyl)-2-(hydroxymethyl)-5-methoxy-4-(4-(2,3,4-trifluorophenyl)-1H-1,2,3-triazol-1-yl)tetrahydro-2H-pyran-3-ol] | 0.14 µM | 0.52 µM
13 | CO[C@@H]1[C@@H](n2cc(-c3ccc(C)c(F)c3F)nn2)[C@@H](O)[C@@H](CO)O[C@@H]1CC1=NOC2(CCCCC2)C1 [Example 1.14, (2R,3R,4S,5R,6R)-6-((1-oxa-2-azaspiro[4.5]dec-2-en-3-yl)methyl)-4-(4-(2,3-difluoro-4-methylphenyl)-1H-1,2,3-triazol-1-yl)-2-(hydroxymethyl)-5-methoxytetrahydro-2H-pyran-3-ol] | 0.078 µM | 2.1 µM
14 | CO[C@@H]1[C@@H](n2cc(-c3cc(F)cc(Cl)c3)nn2)[C@@H](O)[C@@H](CO)O[C@@H]1CC1=NOC2(CCCCC2)C1 [Example 1.19, (2R,3R,4S,5R,6R)-6-((1-oxa-2-azaspiro[4.5]dec-2-en-3-yl)methyl)-4-(4-(3-chloro-5-fluorophenyl)-1H-1,2,3-triazol-1-yl)-2-(hydroxymethyl)-5-methoxytetrahydro-2H-pyran-3-ol] | 0.68 µM | 4.2 µM
15 | CO[C@@H]1[C@@H](n2cc(-c3cc(F)c(C)c(F)c3)nn2)[C@@H](O)[C@@H](CO)O[C@@H]1CC1=NOC2(CCCCC2)C1 [Example 1.21, (2R,3R,4S,5R,6R)-6-((1-oxa-2-azaspiro[4.5]dec-2-en-3-yl)methyl)-4-(4-(3,5-difluoro-4-methylphenyl)-1H-1,2,3-triazol-1-yl)-2-(hydroxymethyl)-5-methoxytetrahydro-2H-pyran-3-ol] | 0.11 µM | 11.4 µM
16 | CO[C@@H]1[C@@H](n2cc(-c3cc(F)c(F)c(F)c3)nn2)[C@@H](O)[C@@H](CO)O[C@@H]1CC1=NOC2(CCC(C(C)C)CC2)C1 (stereo partly drawn) [Example 1.25, (2R,3R,4S,5R,6R)-2-(hydroxymethyl)-6-((8-isopropyl-1-oxa-2-azaspiro[4.5]dec-2-en-3-yl)methyl)-5-methoxy-4-(4-(3,4,5-trifluorophenyl)-1H-1,2,3-triazol-1-yl)tetrahydro-2H-pyran-3-ol] | 1.3 µM | 11.1 µM
17 | CO[C@@H]1[C@@H](n2cc(-c3ccc(C)c(F)c3F)nn2)[C@@H](O)[C@@H](CO)O[C@@H]1CC1=NOC2(CCC(F)(F)CC2)C1 [Example 1.26, (2R,3R,4S,5R,6R)-6-((8,8-difluoro-1-oxa-2-azaspiro[4.5]dec-2-en-3-yl)methyl)-4-(4-(2,3-difluoro-4-methylphenyl)-1H-1,2,3-triazol-1-yl)-2-(hydroxymethyl)-5-methoxytetrahydro-2H-pyran-3-ol] | 0.11 µM | 4 µM
